The results in this text go back to patent US6683107B2, “Furans, benzofurans, and thiophenes useful in the treatment of insulin resistance and hyperglycemia” (Wyeth, priority 1998, dated 2004).

Structures can show the parent of a compound that is named as a salt.

Series [1] has as its target T1, human recombinant PTP1B (hPTP1B) (Homo sapiens, UniProt P18031).
T1 construct: made in house
T1 sequence (P18031 1-435): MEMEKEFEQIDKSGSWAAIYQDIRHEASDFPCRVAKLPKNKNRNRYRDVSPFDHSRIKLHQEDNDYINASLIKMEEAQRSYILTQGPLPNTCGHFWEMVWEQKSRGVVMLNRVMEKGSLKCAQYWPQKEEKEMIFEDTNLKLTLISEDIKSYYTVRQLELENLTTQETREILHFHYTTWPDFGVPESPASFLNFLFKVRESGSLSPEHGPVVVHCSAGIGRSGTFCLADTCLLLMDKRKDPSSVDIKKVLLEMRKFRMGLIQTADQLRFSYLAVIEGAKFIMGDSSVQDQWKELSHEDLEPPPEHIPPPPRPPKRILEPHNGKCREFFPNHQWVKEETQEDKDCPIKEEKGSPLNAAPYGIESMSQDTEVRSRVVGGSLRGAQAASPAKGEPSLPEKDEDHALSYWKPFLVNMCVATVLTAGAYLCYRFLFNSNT
As to the kind of experiment: Inhibition of tri-phosphorylated insulin receptor dodecaphosphopeptide dephosphorylation by hPTP1B (malachite green phosphate detection). It is filed as biochemical. To be noted: for IC50: recombinant PTP1B, insulin receptor 1142-1153 triphosphopeptide substrate, 37° C., 30 min, pH 7.4; for inhibition at 1 µM: compound at 1.0 μM, percent of phosphatase control.

Consider `CC(=O)Oc1cc(S(=O)(=O)Oc2ccc(C(=O)c3c(Cc4ccccc4)sc(C)c3C)cc2C2CCCC2)ccc1C(=O)O` [Example 23, 2-Acetoxy4-[4-(2-benzyl-4,5-dimethyl-thiophene-3-carbonyl)-2-cyclopentyl-phenoxysulfonyl]-benzoic acid], for which the melting point (as a rule, the temperature, or range, at which the solid turns liquid) lay within 94 to 96 °C. In addition, the IC50 (in general, the concentration at which inhibition is half-maximal) in series [1] came out at 0.439 µM.

`Cc1sc(Cc2ccccc2)c(C(=O)c2ccc(OS(=O)(=O)c3ccc(C(=O)O)c(O)c3)c(C3CCCC3)c2)c1C` [Example 18, 4-[4-(2-Benzyl-4,5-dimethyl-thiophene-3-carbonyl)-2-cyclopentyl-phenoxysulfonyll-]2-hydroxy-benzoic acid] came in with a melting point of 70 to 77 °C. Also, the half-inhibitory concentration (IC50) in series [1] came to 0.404 µM.

In the case of `CCc1oc2ccccc2c1C(=O)c1cc(Br)c(OS(=O)(=O)c2ccc(C(=O)O)c(O)c2)c(Br)c1` [Example 1, 4-[2,6-Dibromo-4-(2-ethyl-benzofuran-3-carbonyl)-phenoxysulfonyl]-2-hydroxy-benzoic acid], the melting point is 173 °C. The IC50 in series [1] was 0.251 µM.

In turn, `CCCCc1oc2ccccc2c1CCc1ccc(OS(=O)(=O)c2ccc(C(=O)O)c(O)c2)cc1` [Example 14, 4-{4-[2-(2-Butyl-benzofuran-3-yl)-ethyl]-phenoxysulfonyl}-2-hydroxy-benzoic acid] had a melting point of 93 to 95 °C. The IC50 in series [1] is 0.06 µM.

`Cc1sc(Cc2ccc(Br)cc2)c(C(=O)c2ccc(OS(=O)(=O)c3ccc(C(=O)O)c(O)c3)c(C3CCCC3)c2)c1C` [Example 20, 4-{4-[2-(4-Bromo-benzyl)4.5-dimethyl-thiophene-3-carbonyl]-2-cyclopentylphenoxysulfonyl}-2-hydroxy-benzoic acid] came in with a melting point of 165 to 170 °C. Besides, the IC50 in series [1] was 0.148 µM.

Turning to `CC(=O)Oc1cc(S(=O)(=O)Oc2ccc(C(=O)c3c(Cc4ccc(Br)cc4)sc(C)c3C)cc2C2CCCC2)ccc1C(=O)O` [Example 24, 2-Acetoxy-4-{4-[2-(4-Bromo-benzyl)-4,5-dimethyl-thiophene-3-carbonyl]-2-cyclopentyl-phenoxysulfonyl}-benzoic acid], the melting point was in the range of 113 to 114 °C. In addition, the IC50 in series [1] stood at 0.254 µM.

On to `CCCCc1oc2ccccc2c1CCc1ccc(OS(=O)(=O)c2ccc(C(=O)O)c(OC(C)=O)c2)cc1` [Example 26, 2-Acetoxy-4-{4-[2-(2-butyl-benzofuran-3-yl)-ethyl]-phenoxysulfonyl}-benzoic acid], for which the melting point lay within 54 to 57 °C. Besides, in series [1], the inhibition (as a rule, the change of the read-out against control, counted positive when it falls) at 1 µM turned out to be 51.4%.

Compound `CCCCc1oc2ccccc2c1CNc1ccc(OS(=O)(=O)c2ccc(C(=O)O)c(O)c2)cc1` [Example 15, 4-{4-[(2-Butyl-benzofuran-3-ylmethyl)-amino]-phenoxysulfonyl}-2-hydroxy-benzoic acid] had a melting point of 75 to 77 °C. For the same compound, the inhibition at 1 µM in series [1] came to 28.8%.

As for `CCc1oc2ccccc2c1C(=O)c1cc(-c2ccccc2)c(OS(=O)(=O)c2ccc(C(=O)O)c(O)c2)c(-c2ccccc2)c1` [Example 6, 4-[5′-(2-Ethyl-benzofuran-3-carbonyl)-[1,1′: 3′,1″]terphenyl-2′-yloxysulfonyl-]2-hydroxy-benzoic acid sodium salt], the IC50 in series [1] is 0.256 µM.

`CCc1oc2ccccc2c1C(=O)c1cc(-c2ccccc2)c(OS(=O)(=O)c2ccc(C(=O)O)c(O)c2)c(-c2ccccc2)c1` (as salt: sodium) [Example 6, 4-[5′-(2-Ethyl-benzofuran-3-carbonyl)-[1,1′: 3′,1″]terphenyl-2′-yloxysulfonyl-]2-hydroxy-benzoic acid sodium salt] showed a melting point of 211 to 212 °C.

As to “Ammonium molybdate tetrahydrate [reference compound]”, the IC50 in series [1] amounted to 8.7 µM.

“4-[4-(2-Butyl-benzofuran-3-carbonyl)-phenylsulfonyl]-2-hydroxy-benzoic acid [Example 16]”: in series [1], the “% inhibition @ 0.5 μM” value is reported as 22.81% inhibition @ 0.5 μM.
